Assay results reported in patent US20200187502A1, “MICROBIOCIDAL OXADIAZOLE DERIVATIVES” (SYNGENTA PARTICIPATIONS AG, priority 2017, published 2020).

Columns and labels:
[1] = test system: Puccinia recondita f. Sp. Tritici; test: Fungicidal activity, wheat leaf disc curative (brown rust); assay type: in vivo; settings: foliar, 200 ppm in the applied formulation, wheat leaf segments cv. Kanzler, curative (applied 1 day after inoculation), compared to untreated control, 6 to 8 days after application, read-out: disease control
How it was run: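 Curative test: wheat leaf segments cv. Kanzler on agar inoculated with spore suspension, kept dark at 19 °C/75% RH, then sprayed 1 day post-inoculation with compound diluted in water. Incubated at 19 °C, 75% RH, 12 h light/dark; percent disease control versus untreated scored 6–8 days after application.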

[2] = test system: Phakopsora pachyrhizi; test: Fungicidal activity, soybean leaf disc preventative (Asian soybean rust); assay type: in vivo; settings: foliar, 200 ppm in the applied formulation, soybean leaf disks, compared to untreated control, 12 to 14 days after application, read-out: disease control
How it was run: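 Read-out is percent disease control relative to untreated check discs, assessed once untreated discs show adequate disease, 12 to 14 days after application. Compounds, tested at 200 ppm in the applied formulation, are sprayed onto soybean leaf discs one day before inoculation with a spore suspension.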

[3] = test system: Glomerella lacenarium (Colletotrichum lacenarium); test: Fungicidal activity, liquid culture, cucumber preventative (anthracnose); assay type: cell-based; settings: 20 ppm in the applied formulation, liquid culture in PDB, inhibition of growth measured photometrically 3 to 4 days after application, compared to untreated control, read-out: disease control
How it was run: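 Cryostored conidia mixed into potato dextrose broth and added to DMSO compound solution in microtiter plates. Incubated at 24 °C. Growth inhibition read photometrically 3–4 days after application as percent activity versus untreated check.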

[4] = test system: Puccinia recondita f. Sp. Tritici; test: Fungicidal activity, wheat leaf disc preventative (brown rust); assay type: in vivo; settings: foliar, 200 ppm in the applied formulation, wheat leaf segments cv. Kanzler, compared to untreated control, 7 to 9 days after application, read-out: disease control
How it was run: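 Wheat cv. Kanzler leaf segments on agar were sprayed with formulated compound in water, then inoculated with spores 1 day later. Incubated at 19° C, 75% rh, 12 h light/12 h dark; percent disease control versus untreated scored 7 to 9 days after application.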

CCCC(=O)NCc1ccc(-c2noc(C(F)(F)F)n2)s1 [Compound 2.8, N-[[5-[5-(trifluoromethyl)-1,2,4-oxadiazol-3-yl]-2-thienyl]methyl]butanamide]
≥ 80%: pest or weed control at 200 ppm [1] | pest or weed control at 200 ppm [2] | inhibition of growth at 20 ppm [3] | pest or weed control at 200 ppm [4]

CON(Cc1ccc(-c2noc(C(F)(F)F)n2)s1)C(=O)CC(F)(F)F [Compound 1.18, 3,3,3-trifluoro-N-methoxy-N-[[5-[5-(trifluoromethyl)-1,2,4-oxadiazol-3-yl]-2-thienyl]methyl]propanamide]
≥ 80%: pest or weed control at 200 ppm [1] | pest or weed control at 200 ppm [2] | inhibition of growth at 20 ppm [3] | pest or weed control at 200 ppm [4]

CON(Cc1ccc(-c2noc(C(F)(F)F)n2)s1)C(=O)N1CCC2(CC2)C1 [Compound 1.58, N-methoxy-N-[[5-[5-(trifluoromethyl)-1,2,4-oxadiazol-3-yl]-2-thienyl]methyl]-5-azaspiro[2.4]heptane-5-carboxamide]
≥ 80%: pest or weed control at 200 ppm [1] | pest or weed control at 200 ppm [2] | inhibition of growth at 20 ppm [3] | pest or weed control at 200 ppm [4]

C#CCNC(=O)N(CC)Cc1ccc(-c2noc(C(F)(F)F)n2)s1 [Compound 4.75, 1-ethyl-3-prop-2-ynyl-1-[[5-[5-(trifluoromethyl)-1,2,4-oxadiazol-3-yl]-2-thienyl]methyl]urea]
≥ 80%: pest or weed control at 200 ppm [1] | pest or weed control at 200 ppm [2] | inhibition of growth at 20 ppm [3] | pest or weed control at 200 ppm [4]

CCN(Cc1ccc(-c2noc(C(F)(F)F)n2)s1)C(=O)C1CC1 [Compound 5.4, N-ethyl-N-[[5-[5-(trifluoromethyl)-1,2,4-oxadiazol-3-yl]-2-thienyl]methyl]cyclopropanecarboxamide]
≥ 80%: pest or weed control at 200 ppm [1] | pest or weed control at 200 ppm [2] | inhibition of growth at 20 ppm [3] | pest or weed control at 200 ppm [4]

CCC(C)C(=O)N(Cc1ccc(-c2noc(C(F)(F)F)n2)s1)OC (stereo not drawn) [Compound 1.19, N-methoxy-2-methyl-N-[[5-[5-(trifluoromethyl)-1,2,4-oxadiazol-3-yl]-2-thienyl]methyl]butanamide]
≥ 80%: pest or weed control at 200 ppm [1] | pest or weed control at 200 ppm [2] | inhibition of growth at 20 ppm [3] | pest or weed control at 200 ppm [4]

C#CCNC(=O)N(Cc1ccc(-c2noc(C(F)(F)F)n2)s1)C1CC1 [Compound 4.92, 1-cyclopropyl-3-prop-2-ynyl-1-[[5-[5-(trifluoromethyl)-1,2,4-oxadiazol-3-yl]-2-thienyl]methyl]urea]
≥ 80%: pest or weed control at 200 ppm [1] | pest or weed control at 200 ppm [2] | inhibition of growth at 20 ppm [3] | pest or weed control at 200 ppm [4]

COCCNC(=O)N(Cc1ccc(-c2noc(C(F)(F)F)n2)s1)C1CC1 [Compound 4.89, 1-cyclopropyl-3-(2-methoxyethyl)-1-[[5-[5-(trifluoromethyl)-1,2,4-oxadiazol-3-yl]-2-thienyl]methyl]urea]
≥ 80%: pest or weed control at 200 ppm [1] | pest or weed control at 200 ppm [2] | inhibition of growth at 20 ppm [3] | pest or weed control at 200 ppm [4]

CCN(Cc1ccc(-c2noc(C(F)(F)F)n2)s1)C(=O)CCOC [Compound 4.25, N-ethyl-3-methoxy-N-[[5-[5-(trifluoromethyl)-1,2,4-oxadiazol-3-yl]-2-thienyl]methyl]propanamide]
≥ 80%: pest or weed control at 200 ppm [1] | pest or weed control at 200 ppm [2] | inhibition of growth at 20 ppm [3] | pest or weed control at 200 ppm [4]

O=C(NCc1ccc(-c2noc(C(F)(F)F)n2)s1)C1CCC1 [Compound 3.4, N-[[5-[5-(trifluoromethyl)-1,2,4-oxadiazol-3-yl]-2-thienyl]methyl]cyclobutanecarboxamide]
≥ 80%: pest or weed control at 200 ppm [1] | pest or weed control at 200 ppm [2] | inhibition of growth at 20 ppm [3] | pest or weed control at 200 ppm [4]

COCCCC(=O)NCc1ccc(-c2noc(C(F)(F)F)n2)s1 [Compound 2.10, 4-methoxy-N-[[5-[5-(trifluoromethyl)-1,2,4-oxadiazol-3-yl]-2-thienyl]methyl]butanamide]
≥ 80%: pest or weed control at 200 ppm [1] | pest or weed control at 200 ppm [2] | inhibition of growth at 20 ppm [3] | pest or weed control at 200 ppm [4]

CC1(C(=O)NCc2ccc(-c3noc(C(F)(F)F)n3)s2)CC1 [Compound 3.6, 1-methyl-N-[[5-[5-(trifluoromethyl)-1,2,4-oxadiazol-3-yl]-2-thienyl]methyl]cyclopropanecarboxamide]
≥ 80%: pest or weed control at 200 ppm [1] | pest or weed control at 200 ppm [2] | inhibition of growth at 20 ppm [3] | pest or weed control at 200 ppm [4]

CNC(=O)N(C)Cc1ccc(-c2noc(C(F)(F)F)n2)s1 [Compound 4.1, 1,3-dimethyl-1-[[5-[5-(trifluoromethyl)-1,2,4-oxadiazol-3-yl]-2-thienyl]methyl]urea]
≥ 80%: pest or weed control at 200 ppm [1] | pest or weed control at 200 ppm [2] | inhibition of growth at 20 ppm [3] | pest or weed control at 200 ppm [4]

COCCCC(=O)N(Cc1ccc(-c2noc(C(F)(F)F)n2)s1)C1CC1 [Compound 4.58, N-cyclopropyl-4-methoxy-N-[[5-[5-(trifluoromethyl)-1,2,4-oxadiazol-3-yl]-2-thienyl]methyl]butanamide]
≥ 80%: pest or weed control at 200 ppm [1] | pest or weed control at 200 ppm [2] | inhibition of growth at 20 ppm [3] | pest or weed control at 200 ppm [4]

CCN(Cc1ccc(-c2noc(C(F)(F)F)n2)s1)S(C)(=O)=O [Compound 6.16, N-ethyl-N-[[5-[5-(trifluoromethyl)-1,2,4-oxadiazol-3-yl]-2-thienyl]methyl]methanesulfonamide]
≥ 80%: pest or weed control at 200 ppm [1] | pest or weed control at 200 ppm [2] | inhibition of growth at 20 ppm [3] | pest or weed control at 200 ppm [4]

C=CCN(C)C(=O)N(Cc1ccc(-c2noc(C(F)(F)F)n2)s1)C1CC1 [Compound 4.88, 1-allyl-3-cyclopropyl-1-methyl-3-[[5-[5-(trifluoromethyl)-1,2,4-oxadiazol-3-yl]-2-thienyl]methyl]urea]
≥ 80%: pest or weed control at 200 ppm [1] | pest or weed control at 200 ppm [2] | inhibition of growth at 20 ppm [3] | pest or weed control at 200 ppm [4]

CC(C)N(Cc1ccc(-c2noc(C(F)(F)F)n2)s1)C(=O)C1CC1 [Compound 5.5, N-isopropyl-N-[[5-[5-(trifluoromethyl)-1,2,4-oxadiazol-3-yl]-2-thienyl]methyl]cyclopropanecarboxamide]
≥ 80%: pest or weed control at 200 ppm [1] | pest or weed control at 200 ppm [2] | inhibition of growth at 20 ppm [3] | pest or weed control at 200 ppm [4]

NC(=O)C(=O)N(Cc1ccc(-c2noc(C(F)(F)F)n2)s1)C1CC1 [Compound 6.10, N′-cyclopropyl-N′-[[5-[5-(trifluoromethyl)-1,2,4-oxadiazol-3-yl]-2-thienyl]methyl]oxamide]
≥ 80%: pest or weed control at 200 ppm [1] | pest or weed control at 200 ppm [2] | inhibition of growth at 20 ppm [3] | pest or weed control at 200 ppm [4]

CCNC(=O)N(Cc1ccc(-c2noc(C(F)(F)F)n2)s1)OC [Compound 1.51, 3-ethyl-1-methoxy-1-[[5-[5-(trifluoromethyl)-1,2,4-oxadiazol-3-yl]-2-thienyl]methyl]urea]
≥ 80%: pest or weed control at 200 ppm [1] | pest or weed control at 200 ppm [2] | inhibition of growth at 20 ppm [3] | pest or weed control at 200 ppm [4]

CC1(C(=O)NCc2ccc(-c3noc(C(F)(F)F)n3)s2)COC1 [Compound 3.7, 3-methyl-N-[[5-[5-(trifluoromethyl)-1,2,4-oxadiazol-3-yl]-2-thienyl]methyl]oxetane-3-carboxamide]
≥ 80%: pest or weed control at 200 ppm [1] | pest or weed control at 200 ppm [2] | inhibition of growth at 20 ppm [3] | pest or weed control at 200 ppm [4]

COCCCC(=O)N(C)Cc1ccc(-c2noc(C(F)(F)F)n2)s1 [Compound 4.38, 4-methoxy-N-methyl-N-[[5-[5-(trifluoromethyl)-1,2,4-oxadiazol-3-yl]-2-thienyl]methyl]butanamide]
≥ 80%: pest or weed control at 200 ppm [1] | pest or weed control at 200 ppm [2] | inhibition of growth at 20 ppm [3] | pest or weed control at 200 ppm [4]
